Experimental data: US10947242B2, “[1,2,4]triazolo[1,5and#8208;A]pyrimidine compounds as PDE2 inhibitors” (Janssen Pharmaceutica NV, priority 2016, dated 2021)

What was measured:
Assay type in all cases: biochemical
[1] = target: T1, Human recombinant PDE3A (hPDE3A) (Homo sapiens, UniProt Q14432); assay: In vitro assay PDE3A (SPA, 3H-cAMP hydrolysis);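 note: the method names PDE3A and the table heading PDE3B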
T1 construct: purchased Scottish Biomedical; host or cells: Sf9 insect cells
Outline: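 Radiometric SPA measuring [3H]-cAMP hydrolysis (0.4 μM cAMP, 2.4 μCi/ml) over 60 min at room temperature, in Tris pH 7.8 buffer with MgCl2 and EGTA, 1% DMSO. Enzyme: recombinant human brain PDE3A expressed in Sf9 cells, used as partially purified lysate. Counts compared with enzyme-free blanks and vehicle controls.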

[2] = target: T2, Human recombinant PDE10A (hPDE10A) (Homo sapiens, UniProt Q9Y233); assay: In vitro assay PDE10A, human clone (SPA, 3H-cAMP hydrolysis); conditions: human clone (h), default
T2 construct: His tag (inferred from metal chelate purification); made in house; host or cells: Sf9 insect cells (baculovirus)
T2 sequence (Q9Y233 267-1055): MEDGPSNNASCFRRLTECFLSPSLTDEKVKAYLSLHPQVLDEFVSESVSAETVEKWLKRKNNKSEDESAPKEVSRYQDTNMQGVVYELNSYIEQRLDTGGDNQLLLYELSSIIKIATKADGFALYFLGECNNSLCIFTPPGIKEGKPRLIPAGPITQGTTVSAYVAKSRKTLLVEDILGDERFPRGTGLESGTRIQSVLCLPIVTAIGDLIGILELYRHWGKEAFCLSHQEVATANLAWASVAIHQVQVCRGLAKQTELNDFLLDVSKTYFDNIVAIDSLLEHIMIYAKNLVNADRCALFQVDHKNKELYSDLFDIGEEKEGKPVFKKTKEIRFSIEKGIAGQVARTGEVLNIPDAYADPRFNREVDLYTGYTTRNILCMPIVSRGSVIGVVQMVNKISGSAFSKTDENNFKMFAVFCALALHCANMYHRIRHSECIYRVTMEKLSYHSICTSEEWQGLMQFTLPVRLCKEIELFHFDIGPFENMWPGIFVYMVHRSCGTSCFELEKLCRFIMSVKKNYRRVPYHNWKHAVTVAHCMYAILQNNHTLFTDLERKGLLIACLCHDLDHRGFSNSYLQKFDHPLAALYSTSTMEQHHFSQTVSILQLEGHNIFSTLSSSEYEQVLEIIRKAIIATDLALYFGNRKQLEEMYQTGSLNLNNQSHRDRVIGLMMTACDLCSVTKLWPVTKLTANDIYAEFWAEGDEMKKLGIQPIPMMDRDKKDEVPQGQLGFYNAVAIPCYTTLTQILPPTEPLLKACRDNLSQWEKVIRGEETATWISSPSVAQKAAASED
Outline: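 Hydrolysis of 3H-cAMP (60 nM cAMP, 0.008 μCi tracer) proceeded for 60 min at room temperature, with the product detected by SPA bead scintillation counting. The enzyme was hPDE10A from baculovirus-infected Sf9 cells in Tris pH 7.8 buffer with MgCl2 and EGTA, and compounds were at 1% DMSO final. Blanks lacked enzyme.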

[3] = target: T3, Rat recombinant PDE10A (rPDE10A2) (Rattus norvegicus, UniProt Q9QYJ6); assay: In vitro assay PDE10A, rat clone (SPA, 3H-cAMP hydrolysis)
T3 construct: His tag (inferred from metal chelate purification); made in house; host or cells: Sf9 insect cells (baculovirus)
T3 sequence (Q9QYJ6 1-794): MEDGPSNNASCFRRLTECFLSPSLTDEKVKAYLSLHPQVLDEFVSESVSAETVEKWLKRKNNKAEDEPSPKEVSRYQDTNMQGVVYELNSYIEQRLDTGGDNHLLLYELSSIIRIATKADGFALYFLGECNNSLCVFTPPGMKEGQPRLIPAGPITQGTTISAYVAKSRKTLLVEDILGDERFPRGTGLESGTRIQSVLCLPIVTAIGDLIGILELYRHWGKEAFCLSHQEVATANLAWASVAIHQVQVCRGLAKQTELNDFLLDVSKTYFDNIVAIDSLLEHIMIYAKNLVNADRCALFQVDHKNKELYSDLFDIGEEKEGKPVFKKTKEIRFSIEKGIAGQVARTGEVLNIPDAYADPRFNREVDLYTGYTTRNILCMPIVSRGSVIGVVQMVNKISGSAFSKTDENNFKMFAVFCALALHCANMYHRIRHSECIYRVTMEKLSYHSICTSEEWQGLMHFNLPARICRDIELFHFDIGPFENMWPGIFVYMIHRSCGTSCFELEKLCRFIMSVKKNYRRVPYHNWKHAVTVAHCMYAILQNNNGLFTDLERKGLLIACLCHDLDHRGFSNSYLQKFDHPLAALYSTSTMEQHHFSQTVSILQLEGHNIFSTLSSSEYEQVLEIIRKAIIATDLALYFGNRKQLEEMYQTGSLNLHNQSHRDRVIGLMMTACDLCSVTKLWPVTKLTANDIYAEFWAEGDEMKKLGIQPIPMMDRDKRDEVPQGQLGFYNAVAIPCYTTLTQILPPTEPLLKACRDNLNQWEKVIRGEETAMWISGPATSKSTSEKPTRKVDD
Description: Rat recombinant PDE10A (rPDE10A2) was expressed in Sf9 cells using a recombinant rPDE10A baculovirus construct. Cells were harvested after 48 h of infection and the rPDE10A protein was purified by metal chelate chromatography on Ni-sepharose 6FF. Tested compounds were dissolved and diluted in 100% DMSO to a concentration 100 fold of the final concentration in the assay. Human recombinant PDE10A ([…]) was expressed in Sf9 cells using a recombinant hPDE10A baculovirus that was made and amplified in house. Cells were harvested after 72 h of infection and the hPDE10A protein was purified by metal chelate chromatography on Ni-sepharose. Compound dilutions (0.4 μl) were added in 384 well plates to 20 μl of incubation buffer (50 mM Tris pH 7.8, 8.3 mM MgCl2, 1.7 mM EGTA). 10 μl of rPDE10A or hPDE10A enzyme in incubation buffer was added and the reaction was started by addition of 10 μl substrate to a final concentration of 60 nM cAMP and 0.008 μCi ^3H-cAMP. The reaction was incubated for 60 minutes at room temperature. After incubation, the reaction was stopped with 20 μl of stop solution consisting of 17.8 mg/ml PDE SPA (scintillation proximity assay) beads. After sedimentation of the beads during 30 minutes the radioactivity was measured in a Perkin Elmer Topcount scintillation counter and results were expressed as cpm. For blanc values the enzyme was omitted from the reaction and replaced by incubation buffer. Control values were obtained by addition of a final concentration of 1% DMSO instead of compound. A best fit curve is fitted by a minimum sum of squares method to the plot of % of control value subtracted with blanc value versus compound concentration and the half maximal inhibitory concentration (IC50) value is derived from this curve.

T1 sequence (Q14432 whole entry): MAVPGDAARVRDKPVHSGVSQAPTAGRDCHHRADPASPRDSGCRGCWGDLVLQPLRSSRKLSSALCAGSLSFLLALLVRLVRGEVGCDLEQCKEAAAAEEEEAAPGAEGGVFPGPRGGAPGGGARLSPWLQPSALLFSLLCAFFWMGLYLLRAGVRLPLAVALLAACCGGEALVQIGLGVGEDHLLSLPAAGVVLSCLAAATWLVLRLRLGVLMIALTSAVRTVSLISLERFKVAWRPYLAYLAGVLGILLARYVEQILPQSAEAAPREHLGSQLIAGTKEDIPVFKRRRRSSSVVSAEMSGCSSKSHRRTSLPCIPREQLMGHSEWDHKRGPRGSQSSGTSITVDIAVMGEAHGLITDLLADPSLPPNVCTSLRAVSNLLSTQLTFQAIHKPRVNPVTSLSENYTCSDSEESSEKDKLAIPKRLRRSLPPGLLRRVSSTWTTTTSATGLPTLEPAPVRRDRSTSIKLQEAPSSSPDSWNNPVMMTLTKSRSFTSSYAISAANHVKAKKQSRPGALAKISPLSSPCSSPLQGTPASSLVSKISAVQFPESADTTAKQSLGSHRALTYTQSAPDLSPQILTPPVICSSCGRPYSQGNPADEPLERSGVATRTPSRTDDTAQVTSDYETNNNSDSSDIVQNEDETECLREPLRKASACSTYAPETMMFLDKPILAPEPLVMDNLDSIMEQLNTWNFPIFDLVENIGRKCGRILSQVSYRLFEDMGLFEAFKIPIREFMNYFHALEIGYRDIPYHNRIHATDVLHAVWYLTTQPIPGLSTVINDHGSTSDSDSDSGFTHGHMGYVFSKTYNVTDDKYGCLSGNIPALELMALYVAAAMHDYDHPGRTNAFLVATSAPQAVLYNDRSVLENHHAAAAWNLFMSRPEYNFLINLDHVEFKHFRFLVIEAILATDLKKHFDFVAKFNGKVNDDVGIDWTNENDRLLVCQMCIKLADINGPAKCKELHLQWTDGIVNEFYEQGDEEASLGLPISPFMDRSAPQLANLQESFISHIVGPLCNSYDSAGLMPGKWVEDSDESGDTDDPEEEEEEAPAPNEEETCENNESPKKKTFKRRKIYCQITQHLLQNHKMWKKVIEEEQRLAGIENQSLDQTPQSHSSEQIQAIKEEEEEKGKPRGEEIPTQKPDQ

C[C@@H]1CCN(C(=O)c2ccc3c(ccn3CCF)c2)C[C@H]1c1cc(C(F)F)nc2ncnn12 [Compound 89]
IC50 ([1]; hPDE3B pIC50, read-out: pIC50 (converted)): 145 nM | Emax ([1]; read-out: hPDE3B Emax, read-out: Emax): 96% | Emax ([2]; read-out: hPDE10A2 Emax): 101% | IC50 ([2]; read-out: hPDE10A2 pIC50 (converted)): 20.9 nM | Emax ([3]; rat clone (r)): 98% | IC50 ([3]; rat clone (r), read-out: rPDE10A2 pIC50 (converted)): 12 nM | rPDE10A2 pIC50 ([3]; rat clone, indicated as (r)): 7.92 (r)
